Test system: A549 human lung epithelium cell line
Test: RANTES production in response to TNF-α from A549 cells
Format: cell-based
Settings: A549 cells, 100 ng/ml TNF-α, read-out: Cellular activity grade (A549) (Cellular IC50)
Method in brief: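 RANTES released into supernatant was measured by DELFIA-type sandwich immunoassay, Eu-labelled detection antibody, 340 nm excitation/615 nm emission, recombinant RANTES standard. Beforehand, cells seeded at 4×10^4/well received test compound (1% DMSO) for 1 h at 37 °C, followed by 24 h TNF-α (100 ng/ml) stimulation.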

Compound | IC50 [nM]
Cc1ccc(COc2cccc(O)c2-c2cc(C3CCCNC3)c(C#N)c(N)n2)cc1 (centres unmarked) [Example 2-35] | < 1000
COC(=O)c1ccc(COc2cccc(O)c2-c2cc(C3CCCNC3)c(C#N)c(N)n2)cc1 (centres unmarked) [Example 2-38] | < 1000
N#Cc1c(C2CCCNC2)cc(-c2c(O)cccc2OCc2ccc(Br)cc2)nc1N (centres unmarked) [Example 2-39] | < 1000
N#Cc1c(C2CCCNC2)cc(-c2c(O)cccc2OCc2ccccc2F)nc1N (centres unmarked) [Example 2-37] | < 1000
N#Cc1c(C2CCCNC2)cc(-c2c(O)cccc2OCc2ccc(C(F)(F)F)cc2)nc1N (centres unmarked) [Example 2-36] | < 1000

Same assay, conditions: Homo sapiens, A549, A549 cells, 100 ng/ml TNF-α, read-out: Cellular activity grade (A549) (Cellular IC50)

Compound | IC50 [nM]
N#Cc1c(C2CCCNC2)cc(-c2c(O)cccc2OCc2ccc(-c3ccccc3)cc2)nc1N (centres unmarked) [Example 2-33] | 1000 to 10000
N#Cc1c(C2CCCNC2)cc(-c2c(O)cccc2OCc2cccc3ccccc23)nc1N (centres unmarked) [Example 2-32] | 1000 to 10000
N#Cc1c(C2CCCNC2)cc(-c2c(O)cccc2OCc2csc3ccc(Cl)cc23)nc1N (centres unmarked) [Example 2-47] | 1000 to 10000
Nc1nc(-c2c(O)cccc2OCc2ccccc2)cc(C2CCCNC2)c1CO (centres unmarked) [Example 12-02] | 1000 to 10000
N#Cc1c(C2CCCNC2)cc(-c2c(O)cccc2OCc2ccc(Cl)cc2Cl)nc1N (centres unmarked) [Example 2-34] | 1000 to 10000
N#Cc1c(C2CCCNC2)cc(-c2c(O)cccc2OCc2ccccc2-c2ccccc2)nc1N (centres unmarked) [Example 2-22] | 1000 to 10000
O=C1Nc2nc(-c3c(O)cccc3OCc3ccccc3)cc(C3CCNCC3)c2CO1 [Example 18-16] | 1000 to 10000
Cc1ccccc1COc1cccc(O)c1-c1cc(C2CCCNC2)c(C#N)c(N)n1 (centres unmarked) [Example 2-06] | 1000 to 10000
N#Cc1c(C2CCCNC2)cc(-c2c(O)cccc2OCc2ccc(F)c(F)c2)nc1N (centres unmarked) [Example 2-29] | 1000 to 10000
N#Cc1c(C2CCNCC2)cc(-c2c(O)cccc2OCc2ccccc2)nc1N [Example 2-23] | 1000 to 10000
CCC(=O)NCc1c(C2CCCNC2)cc(-c2ccccc2O)nc1N (centres unmarked) [Example 23-06] | 1000 to 10000
CCCN1CCCC(c2cc(-c3ccccc3O)nc(N)c2C#N)C1 (centres unmarked) [Example 3-04] | 1000 to 10000
O=C1Nc2nc(-c3c(O)cccc3O)cc(C3CCNCC3)c2CO1 [Example 18-12] | > 10000
N#Cc1c(C2CCCN(CCc3ccccc3)C2)cc(-c2ccccc2O)nc1N (centres unmarked) [Example 3-06] | 1000 to 10000
COc1ccc(CN2CCCC(c3cc(-c4c(O)cccc4OCC4CC4)nc(N)c3C#N)C2)cc1 (centres unmarked) [Example 3-08] | > 10000
N#Cc1c(C2CCCNC2)cc(-c2c(O)cccc2OCc2ccc(Cl)c(Cl)c2)nc1N (centres unmarked) [Example 2-05] | 1000 to 10000
N#Cc1c(C2CCCNC2)cc(-c2c(O)cccc2OCCC(c2ccccc2)c2ccccc2)nc1N (centres unmarked) [Example 2-46] | 1000 to 10000
COc1ccc(CN2CCCC(c3cc(-c4c(O)cccc4O)nc(N)c3C#N)C2)cc1 (centres unmarked) [Example 3-07] | 1000 to 10000
N#Cc1c(C2CCCNC2)cc(-c2c(O)cccc2OCc2ccccn2)nc1N (centres unmarked) [Example 2-42] | 1000 to 10000
N#Cc1c(C2CCCNC2)cc(-c2c(O)cccc2OCC(=O)c2ccccc2)nc1N (centres unmarked) [Example 2-51] | < 1000
N#Cc1c(C2CCCNC2)cc(-c2c(O)cccc2OCc2ccc3ccccc3n2)nc1N (centres unmarked) [Example 2-45] | < 1000
Cc1cc(-c2c(O)cccc2OCC2CC2)nc2c1COC(=O)N2 [Example 18-09] | < 1000
CC(C)COC(=O)N1Cc2c(C3CCCNC3)cc(-c3c(O)cccc3OCC3CC3)nc2NC1=O (centres unmarked) [Example 24-06] | < 1000
N#Cc1c(C2CCCN(Cc3ccccc3)C2)cc(-c2ccccc2O)nc1N (centres unmarked) [Example 3-05] | < 1000
Nc1nc(-c2c(O)cccc2OCC2CC2)cc(C2CCCNC2)c1CNC(=S)Nc1ccccc1 (centres unmarked) [Example 23-15] | < 1000
N#Cc1c(C2CCCNC2)cc(-c2c(O)cccc2OCc2ccncc2)nc1N (centres unmarked) [Example 2-44] | < 1000
CC(C)Oc1cccc(O)c1-c1cc(C2CCCNC2)c(C#N)c(N)n1 (centres unmarked) [Example 2-54] | < 1000
N#Cc1c(C2CCCNC2)cc(-c2c(O)cccc2OCc2ccc(F)cc2F)nc1N (centres unmarked) [Example 2-26] | < 1000
CCCOc1cccc(O)c1-c1cc(C2CCCNC2)c(C#N)c(N)n1 (centres unmarked) [Example 2-55] | < 1000
CC(C)OC(=O)N1Cc2c(C3CCCNC3)cc(-c3c(O)cccc3OCC3CC3)nc2NC1=O (centres unmarked) [Example 24-05] | < 1000

The remaining lines, values ahead:

IC50 [nM] | Compound
< 1000 | NC(=O)N1Cc2c(C3CCCNC3)cc(-c3c(O)cccc3OCC3CC3)nc2NC1=O (centres unmarked) [Example 24-10]
< 1000 | N#Cc1c(C2CCNCC2)cc(-c2c(O)cccc2OCCc2ccccc2)nc1N [Example 2-52]
< 1000 | CCCOc1cccc(O)c1-c1cc(C2CCCNC2)c(CO)c(N)n1 (centres unmarked) [Example 12-03]
< 1000 | CCCOc1cccc(O)c1-c1cc(C2CCCNC2)c2c(n1)NC(=O)OC2 (centres unmarked) [Example 18-11]
< 1000 | CCOc1cccc(O)c1-c1cc(C2CCCNC2)c(C#N)c(N)n1 (centres unmarked) [Example 2-58]
< 1000 | NC(=O)NCc1c(C2CCCNC2)cc(-c2c(O)cccc2OCC2CC2)nc1N (centres unmarked) [Example 23-13]
< 1000 | Nc1nc(-c2c(O)cccc2OCC2CC2)cc(C2CCNCC2)c1CO [Example 12-05]
< 1000 | CN(C)C(=O)NCc1c(C2CCCNC2)cc(-c2c(O)cccc2OCC2CC2)nc1N (centres unmarked) [Example 23-11]
< 1000 | CC(C)(C)COC(=O)NCc1c(C2CCCNC2)cc(-c2c(O)cccc2OCC2CC2)nc1N (centres unmarked) [Example 23-10]
< 1000 | O=C1Nc2nc(-c3c(O)cccc3OCC3CC3)cc(C3CCNCC3)c2CO1 [Example 18-13]
< 1000 | CC(=O)NCc1c(C2CCCNC2)cc(-c2ccccc2O)nc1N (centres unmarked) [Example 23-04]
< 1000 | CC(C)COC(=O)NCc1c(C2CCCNC2)cc(-c2c(O)cccc2OCC2CC2)nc1N (centres unmarked) [Example 23-09]
< 1000 | N#Cc1c(C2CCCNC2)cc(-c2c(O)cccc2OCC2CCCCC2)nc1N (centres unmarked) [Example 2-53]
< 1000 | O=C1Nc2nc(-c3c(O)cccc3OCc3ccccc3)cc(C3CCCNC3)c2CO1 (centres unmarked) [Example 18-10]
< 1000 | N#Cc1c(C2CCCNC2)cc(-c2c(O)cccc2OCc2ccc(F)cc2)nc1N (centres unmarked) [Example 2-28]
< 1000 | CC(C)COc1cccc(O)c1-c1cc(C2CCCNC2)c(C#N)c(N)n1 (centres unmarked) [Example 2-59]
< 1000 | CC(=O)NCc1c(C2CCNCC2)cc(-c2c(O)cccc2OCC2CC2)nc1N [Example 23-07]
< 1000 | Nc1nc(-c2c(O)cccc2OCC2CC2)cc(C2CCCNC2)c1CNC(=O)Nc1ccccc1 (centres unmarked) [Example 23-14]
< 1000 | COC(=O)c1ccc(COc2cccc(O)c2-c2cc(C3CCCNC3)c(C#N)c(N)n2)cc1 (centres unmarked) [Example 2-30]
< 1000 | CC(C)(C)COc1cccc(O)c1-c1cc(C2CCCNC2)c(CO)c(N)n1 (centres unmarked) [Example 12-04]
< 1000 | O=C1Nc2nc(-c3c(O)cccc3F)cc(C3CCCNC3)c2CO1 (centres unmarked) [Example 18-07]
< 1000 | CCCNC(=O)NCc1c(C2CCCNC2)cc(-c2c(O)cccc2OCC2CC2)nc1N (centres unmarked) [Example 23-12]
< 1000 | O=C1Nc2nc(-c3ncccc3O)cc(C3CCCNC3)c2CO1 (centres unmarked) [Example 18-08]

IC50 [nM] | Compound
< 1000 | CC(C)(C)COC(=O)N1Cc2c(C3CCCNC3)cc(-c3c(O)cccc3OCC3CC3)nc2NC1=O (centres unmarked) [Example 24-07]
< 1000 | N#Cc1c(CCN)cc(-c2c(O)cccc2OCc2ccccc2)nc1N [Example 2-40]
< 1000 | N#Cc1c(C2CCCNC2)cc(-c2c(O)cccc2OCc2ccccc2F)nc1N (centres unmarked) [Example 2-25]
< 1000 | COc1cccc(O)c1-c1cc(C2CCCNC2)c(C#N)c(N)n1 (centres unmarked) [Example 2-57]
< 1000 | N#Cc1c(C2CCCNC2)cc(-c2c(O)cccc2OCc2cccnc2)nc1N (centres unmarked) [Example 2-43]
< 1000 | Cc1cc(COc2cccc(O)c2-c2cc(C3CCCNC3)c(C#N)c(N)n2)no1 (centres unmarked) [Example 2-49]
< 1000 | C=CCOc1cccc(O)c1-c1cc(C2CCCNC2)c(C#N)c(N)n1 (centres unmarked) [Example 2-56]
< 1000 | CCCCCOc1cccc(O)c1-c1cc(C2CCCNC2)c(C#N)c(N)n1 (centres unmarked) [Example 2-60]
< 1000 | CN(C)C(=O)N1Cc2c(C3CCCNC3)cc(-c3c(O)cccc3OCC3CC3)nc2NC1=O (centres unmarked) [Example 24-08]
< 1000 | CC(C)CCCOc1cccc(O)c1-c1cc(C2CCNCC2)c2c(n1)NC(=O)OC2 [Example 18-15]
< 1000 | CC(C)OC(=O)NCc1c(C2CCCNC2)cc(-c2c(O)cccc2OCC2CC2)nc1N (centres unmarked) [Example 23-08]
< 1000 | CC(C)CCCOc1cccc(O)c1-c1cc(C2CCNCC2)c(CO)c(N)n1 [Example 12-07]
< 1000 | CC(C)(C)c1ccc(COc2cccc(O)c2-c2cc(C3CCCNC3)c(C#N)c(N)n2)cc1 (centres unmarked) [Example 2-31]
< 1000 | N#Cc1c(C2CCCNC2)cc(-c2c(O)cccc2OCCCc2ccccc2)nc1N (centres unmarked) [Example 2-50]
< 1000 | N#Cc1c(C2CCCNC2)cc(-c2c(O)cccc2OCCc2ccccc2)nc1N (centres unmarked) [Example 2-41]
< 1000 | CCCOc1cccc(O)c1-c1cc(C2CCNCC2)c(CO)c(N)n1 [Example 12-06]
< 1000 | CCCOc1cccc(O)c1-c1cc(C2CCNCC2)c2c(n1)NC(=O)OC2 [Example 18-14]
< 1000 | Nc1nc(-c2ccccc2O)cc(C2CCCNC2)c1CNC(=O)C1CC1 (centres unmarked) [Example 23-05]
< 1000 | N#Cc1c(C2CCCNC2)cc(-c2c(O)cccc2OCc2ccc(Br)cc2)nc1N (centres unmarked) [Example 2-24]
< 1000 | N#Cc1c(C2CCCNC2)cc(-c2c(O)cccc2OCc2cccc(F)c2)nc1N (centres unmarked) [Example 2-27]
< 1000 | N#Cc1c(C2CCCNC2)cc(-c2c(O)cccc2OCc2ncon2)nc1N (centres unmarked) [Example 2-48]
< 1000 | CN1CCCC(c2cc(-c3ccccc3O)nc(N)c2C#N)C1 (centres unmarked) [Example 3-03]
